Results as given in US8710043B2, “TRPM8 antagonists and their use in treatments” (Amgen Inc., priority 2011, dated 2014).

target: T1, human TRPM8 (Homo sapiens, UniProt Q7Z2W7); assay: Luminescence readout assay for measuring intracellular calcium, icilin activation; type: cell-based; conditions: CHO cells expressing human TRPM8, aequorin luminescence, 1 μM icilin activation; read-out: hTRPM8 IC50
T1 construct: expressed in transfected cells; host or cells: Chinese hamster ovary (CHO) cells, T-REx tetracycline-inducible system, co-transfected with aequorin
T1 sequence (Q7Z2W7 whole entry): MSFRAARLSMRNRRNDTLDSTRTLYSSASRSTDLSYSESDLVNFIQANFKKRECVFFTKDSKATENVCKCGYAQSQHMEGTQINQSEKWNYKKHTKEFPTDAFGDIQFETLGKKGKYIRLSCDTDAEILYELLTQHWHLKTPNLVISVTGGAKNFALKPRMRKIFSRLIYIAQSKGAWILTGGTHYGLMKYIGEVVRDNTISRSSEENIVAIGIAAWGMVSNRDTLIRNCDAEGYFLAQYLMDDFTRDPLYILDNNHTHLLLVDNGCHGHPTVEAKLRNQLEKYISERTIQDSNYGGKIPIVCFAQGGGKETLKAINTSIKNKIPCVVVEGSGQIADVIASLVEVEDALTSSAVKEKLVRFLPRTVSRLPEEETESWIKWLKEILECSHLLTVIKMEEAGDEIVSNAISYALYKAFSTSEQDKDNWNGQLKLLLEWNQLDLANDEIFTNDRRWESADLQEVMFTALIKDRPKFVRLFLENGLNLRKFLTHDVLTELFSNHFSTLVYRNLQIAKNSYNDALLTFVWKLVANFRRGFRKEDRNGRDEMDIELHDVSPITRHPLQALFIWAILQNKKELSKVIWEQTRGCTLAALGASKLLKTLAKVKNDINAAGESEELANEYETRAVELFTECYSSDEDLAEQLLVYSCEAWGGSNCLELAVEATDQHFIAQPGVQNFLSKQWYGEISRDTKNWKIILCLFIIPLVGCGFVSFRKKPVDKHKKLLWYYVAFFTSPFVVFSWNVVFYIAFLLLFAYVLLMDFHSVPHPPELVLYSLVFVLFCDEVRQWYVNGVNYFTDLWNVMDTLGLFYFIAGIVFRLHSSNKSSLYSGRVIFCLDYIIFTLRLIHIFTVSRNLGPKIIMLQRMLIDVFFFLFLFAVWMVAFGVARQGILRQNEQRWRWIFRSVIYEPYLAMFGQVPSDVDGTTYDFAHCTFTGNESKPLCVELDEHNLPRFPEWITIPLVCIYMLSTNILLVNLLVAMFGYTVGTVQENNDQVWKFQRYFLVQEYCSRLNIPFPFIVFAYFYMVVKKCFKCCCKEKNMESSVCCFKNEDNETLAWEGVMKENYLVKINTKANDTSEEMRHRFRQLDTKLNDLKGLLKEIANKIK
How it was run: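 The read-out was luminescence reporting intracellular calcium, recorded by a CCD-based luminometer. Compounds were preincubated for 2.5 min before agonist challenge with 1 μM icilin. Human TRPM8 was expressed in a stable T-REx CHO line, induced with 0.5 μg/mL tetracycline the day before.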

SMILES | IC50 [µM]
COc1ccc([C@H](NC(=O)c2ccc(=O)n(C)c2)c2ncccc2F)cc1 [Example 343, (S)-N-((3-fluoropyridin-2-yl)(4-methoxyphenyl)methyl)-1-methyl-6-oxo-1,6-dihydropyridine-3-carboxamide] | 1.48
O=C(N[C@@H](c1cccc(Cl)c1)c1ncccc1C(F)(F)F)c1ccc2cccnc2c1 [Example 13, (S)-N-((3-chlorophenyl)(3-(trifluoromethyl)pyridin-2-yl)methyl)quinoline-7-carboxamide] | 0.0833
COC(=O)c1ccc(C(=O)N[C@@H](c2ccc(C(F)(F)F)cc2)c2ncccc2C(F)(F)F)cc1 [Example 140, (S)-methyl 4-(((4-(trifluoromethyl)phenyl)(3-(trifluoro-methyl)pyridin-2-yl)methyl)carbamoyl)benzoate] | 0.0527
O=C(N[C@@H](c1ccc(C(F)(F)F)cc1)c1ncccc1F)c1ccc2c(Cl)ccnc2c1 [Example 120, (S)-4-chloro-N-((3-fluoropyridin-2-yl)(4-(trifluoromethyl)phenyl)methyl)quinoline-7-carboxamide 2,2,2-trifluoroacetate] | 0.0594
O=C(O)Cn1cc(C(=O)N[C@@H](c2ccc(OC(F)(F)F)c(F)c2)c2ncccc2F)ccc1=O [Example 428, (S)-2-(5-(((3-Fluoro-4-(trifluoromethoxy)phenyl)(3-fluoropyridin-2-yl)methyl)carbamoyl)-2-oxopyridin-1(2H)-yl)acetic Acid] | 1.29
O=C(N[C@@H](c1ccc(OC(F)(F)F)c(F)c1)c1ncccc1F)c1c[nH]c(=O)c(F)c1 [Example 400, (S)-5-fluoro-N-((3-fluoro-4-(trifluoromethoxy)phenyl)(3-fluoropyridin-2-yl)methyl)-6-oxo-1,6-dihydropyridine-3-carboxamide] | 0.0069
O=C(N[C@@H](c1ccc(C(F)(F)F)cc1)c1ncccc1F)c1ccc2cn[nH]c2c1 [Example 166, (S)-N-((3-fluoropyridin-2-yl)(4-(trifluoromethyl)phenyl)methyl)-1H-indazole-6-carboxamide] | 0.0076
CN(C)c1ccc(C(=O)N[C@@H](c2ccc(C(F)(F)F)cc2)c2ncccc2C(F)(F)F)cc1 [Example 196, (S)-4-(dimethylamino)-N-((4-(trifluoromethyl)phenyl)(3-(trifluoromethyl)pyridin-2-yl)methyl)benzamide] | 0.0671
C[C@H](O)Cn1cc(C(=O)N[C@@H](c2ccc(C(F)(F)F)cc2)c2ncccc2F)ccc1=O [Example 300, N-((S)-(3-fluoropyridin-2-yl)(4-(trifluoromethyl)phenyl)methyl)-1-((S)-2-hydroxypropyl)-6-oxo-1,6-dihydropyridine-3-carboxamide] | 0.0697
O=C(NC(c1ccc(C(F)(F)F)cc1)c1ncccc1F)c1ccccc1 (stereo not shown) [Example 193, N-((3-fluoropyridin-2-yl)(4-(trifluoromethyl)phenyl)methyl)benzamide] | 0.0348
Cc1cccnc1[C@@H](NC(=O)c1ccc2oc(=O)[nH]c2c1)c1ccc(C(F)(F)F)cc1 [Example 84, (S)-N-((3-methylpyridin-2-methyl)phenyl)yl)(4-(trifluoromethyl)-2-oxo-2,3-dihydrobenzo[d]oxazole-5-carboxamide] | 0.0053
Cc1ccc([C@H](NC(=O)c2ccc(=O)[nH]c2)c2ncccc2F)cc1F [Example 334, (S)-N-((3-fluoro-4-methylphenyl)(3-fluoropyridin-2-yl)methyl)-6-oxo-1,6-dihydropyridine-3-carboxamide] | 0.103
O=C(N[C@@H](c1ccc(C(F)(F)F)cc1)c1ncccc1C(F)(F)F)c1ccc(OC(F)(F)F)cc1 [Example 231, (S)-4-(trifluoromethoxy)-N-((4-(trifluoromethyl)phenyl)(3-(trifluoromethyl)pyridin-2-yl)methyl)benzamide] | 0.461
O=C1Cc2ccc(C(=O)N[C@@H](c3ccc(OC(F)(F)F)cc3)c3ncccc3F)cc2N1 [Example 90, (S)-N-((3-fluoropyridin-2-yl)(4-(trifluoromethoxy)phenyl)methyl)-2-oxoindoline-6-carboxamide] | 0.0062
Cc1cccnc1[C@@H](NC(=O)c1ccc(=O)n(C)c1)c1ccc(C(F)(F)F)cc1 [Example 83, (S)-1-methyl-N-((3-methylpyridin-2-yl)(4-(trifluoromethyl)phenyl)methyl)-6-oxo-1,6-dihydropyridine-3-carboxamide 2,2,2-trifluoroacetate] | 0.0392
O=C(N[C@@H](c1ccc(C(F)(F)F)cc1)c1ncccc1F)c1n[nH]c2c1CCCC2 [Example 322, (S)-N-((3-fluoropyridin-2-yl)(4-(trifluoromethyl)phenyl)methyl)-4,5,6,7-tetrahydro-1H-indazole-3-carboxamide] | 0.202
Cc1ccc(C(=O)N[C@@H](c2ccc(C(F)(F)F)cc2)c2ncccc2C(F)(F)F)cn1 [Example 40, (S)-6-methyl-N-((4-(trifluoromethyl)phenyl)(3-(trifluoromethyl)pyridin-2-yl)methyl)nicotinamide] | 0.0134
O=C(N[C@@H](c1ccc(OC(F)(F)F)cc1)c1ncccc1F)c1ccc2[nH]c(=O)oc2c1 [Example 80, (S)-N-((3-fluoropyridin-2-yl)(4-(trifluoromethoxy)phenyl)methyl)-2-oxo-2,3-dihydrobenzo[d]oxazole-6-carboxamide] | 0.0231
O=C(O)c1ccc(C(=O)N[C@@H](c2ccc(C(F)(F)F)cc2)c2ncccc2C(F)(F)F)cc1 [Example 283, (S)-4-(((4-(Trifluoromethyl)phenyl)(3-(trifluoromethyl)-pyridin-2-yl)methyl)carbamoyl)benzoic Acid] | 0.0218
O=C(N[C@@H](c1ccc(C(F)(F)F)c(F)c1)c1ncccc1C(F)(F)F)[C@H]1CCCO1 [Example 123, (R)-N-((S)-(3-fluoro-4-(trifluoromethyl)phenyl)(3-(trifluoromethyl)pyridin-2-yl)methyl)THF-2-carboxamide] | 0.149
O=C(N[C@@H](c1ccc(C(F)(F)F)cc1)c1ncccc1F)c1ccc(=O)n(C2COC2)c1 [Example 305, (S)-N-((3-fluoropyridin-2-yl)(4-(trifluoromethyl)phenyl)methyl)-1-(oxetan-3-yl)-6-oxo-1,6-dihydropyridine-3-carboxamide] | 0.0296
CC#Cc1cccnc1[C@@H](NC(=O)c1ccc(=O)[nH]c1)c1ccc(C(F)(F)F)cc1 [Example 92, (S)-6-oxo-N-((3-(prop-1-yn-1-yl)pyridin-2-yl)(4-(trifluoromethyl)phenyl)methyl)-1,6-dihydropyridine-3-carboxamide] | 0.0103
O=C(Cc1c[nH]cn1)N[C@@H](c1ccc(C(F)(F)F)cc1)c1ncccc1C(F)(F)F [Example 158, (S)-2-(1H-imidazol-4-yl)-N-((4-(trifluoromethyl)phenyl)(3-(trifluoromethyl)pyridin-2-yl)methyl)acetamide] | 1.95
O=C(N[C@@H](c1ccc(C(F)(F)F)cc1)c1ncccc1F)c1ccn2ccnc2c1 [Example 86, (S)-N-((3-fluoropyridin-2-yl)(4-(trifluoromethyl)phenyl)methyl)imidazo[1,2-a]pyridine-7-carboxamide] | 0.0102
O=C(N[C@@H](c1ccc(C(F)(F)F)cc1)c1ncccc1F)c1ccc2c(O)ccnc2c1 [Example 105, (S)-N-((3-fluoropyridin-2-yl)(4-(trifluoromethyl)phenyl)methyl)-4-hydroxyquinoline-7-carboxamide 2,2,2-trifluoroacetate] | 0.0108
